Results published in ChEMBL document CHEMBL1201862, “PubChem BioAssay data set” (2004).
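Exposure lasted 48 hours, with cells grown in 96-well plates and compounds tested at five concentrations. Here, GI50 denotes the concentration required for 50% inhibition of growth.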 Activity calls are given as the source filed them. No stated cut-off is given here; in the data, active = GI50 up to about 1.1 µM and inactive = higher.

Tests used:
Experiment in all cases: inhibition of tumour cell growth, NCI panel, 48 h
IGROV-1 = tested on: IGROV-1
CCRF-CEM = tested on: CCRF-CEM
HCT-15 = tested on: HCT-15
Malme-3M = tested on: Malme-3M
KM-20L2 = tested on: KM-20L2
SNB-19 = tested on: SNB-19
SF-295 = tested on: SF-295
SF-268 = tested on: SF-268
SK-MEL-28 = tested on: SK-MEL-28
786-0 = tested on: 786-0
SK-MEL-5 = tested on: SK-MEL-5
HCC 2998 = tested on: HCC 2998
SN12C = tested on: SN12C
OVCAR-3 = tested on: OVCAR-3
UACC-257 = tested on: UACC-257
BT-549 = tested on: BT-549
MCF7 = tested on: MCF7
MDA-MB-231 = tested on: MDA-MB-231
T47D = tested on: T47D
DU-145 = tested on: DU-145

SMILES	GI50 (IGROV-1)	GI50 (CCRF-CEM)	GI50 (HCT-15)	GI50 (Malme-3M)	GI50 (KM-20L2)	GI50 (SNB-19)	GI50 (SF-295)	GI50 (SF-268)	GI50 (SK-MEL-28)	GI50 (786-0)	GI50 (SK-MEL-5)	GI50 (HCC 2998)	GI50 (SN12C)	GI50 (OVCAR-3)	GI50 (UACC-257)	GI50 (BT-549)	GI50 (MCF7)	GI50 (MDA-MB-231)	GI50 (T47D)	GI50 (DU-145)
CCOC(=O)CN(Cc1ccccc1)Cc1c(C(=O)c2ccccc2)c2ccccc2n1C(=O)c1ccccc1	> 100 µM (inactive)	> 100 µM (inactive)	> 100 µM	> 100 µM (inactive)	> 100 µM (inactive)	> 100 µM (inactive)	> 100 µM (inactive)	> 100 µM (inactive)	> 100 µM (inactive)	> 100 µM (inactive)	96.8 µM (inactive)	> 100 µM (inactive)	> 100 µM (inactive)	> 100 µM (inactive)	–	–	–	–	–	–
C=C(C)C12OC3(c4ccccc4)OC1C1C4OC4(CO)C(O)C4(O)C(=O)C(C)=CC4C1(O3)C(C)C2OC(=O)/C=C/C=C/c1ccccc1 (stereo unspecified)	0.537 µM (active)	0.128 µM (active)	0.258 µM	0.474 µM (active)	–	0.713 µM (active)	< 0.0005 µM (active)	0.247 µM (active)	0.33 µM (active)	0.101 µM (active)	0.0716 µM (active)	< 0.0005 µM (active)	0.112 µM (active)	0.109 µM (active)	0.453 µM (active)	0.203 µM (active)	0.222 µM (active)	< 0.0005 µM (active)	1.51 µM (inactive)	0.215 µM (active)
C[S+](C)CC(=O)c1ccc2c(c1)Sc1ccccc1O2	2.75 µM (inactive)	5.27 µM (inactive)	2.47 µM	3.45 µM (inactive)	–	5.51 µM (inactive)	5.25 µM (inactive)	5.43 µM (inactive)	7.89 µM (inactive)	2.72 µM (inactive)	1.08 µM (active)	2.64 µM (inactive)	6.34 µM (inactive)	2.4 µM (inactive)	4.72 µM (inactive)	2.18 µM (inactive)	1.7 µM (inactive)	7.06 µM (inactive)	9.57 µM (inactive)	4.1 µM (inactive)
CCOC(=O)NC(Nc1ccc(F)cc1F)(C(F)(F)F)C(F)(F)F	> 100 µM (inactive)	> 100 µM (inactive)	> 100 µM	> 100 µM (inactive)	–	> 100 µM (inactive)	> 100 µM (inactive)	> 100 µM (inactive)	> 100 µM (inactive)	> 100 µM (inactive)	> 100 µM (inactive)	> 100 µM (inactive)	> 100 µM (inactive)	> 100 µM (inactive)	> 100 µM (inactive)	> 100 µM (inactive)	> 100 µM (inactive)	> 100 µM (inactive)	> 100 µM (inactive)	> 100 µM (inactive)
